Reference: patent US11096985B2, “Antimicrobial peptides, their variants and uses” (priority 2015, dated 2021)
Where a SMILES comes first, the peptide text is derived from it. [ ]: non-standard residue; d: D form.

Experiments:
[1] = system: clinical strains of Escherichia coli; test: MIC, clinical strains of E. coli; type: cell-based; design: unit: μg/ml; conditions: microdilution, Muller Hinton broth-cation adjusted, 0.02% BSA, 0.2% acetic acid
Protocol: (§1) Minimum inhibition concentrations (MICs) were determined against Escherichia coli (ATCC 25922), Staphylococcus aureus (ATCC 25923), Klebsiella pneumoniae (ATCC 10031) and Pseudomonas aeruginosa (ATCC 27853). Also clinical strains of E. coli, K. pneumoniae, E. cloacae, P. aeruginosa, Serratia marcescens, Proteus mirabilis, S. pneumoniae, Acinetobacter baumannii, A. johnsonii and S. aureus were used for MICs assays. Additionally, clinical strains of yeast including Candida albicans, C. glabrata, C. parapsilosis and C. quillermondiae were used. The susceptibility of these microorganisms to Chain peptides were determined using micro broth dilution assay. Colonies of the respective microorganism from Muller Hinton (MH) agar plates incubated overnight were suspended in MH broth media and final concentration of microorganism was adjusted to 5.0×10^5 cfu/ml. An aliquot of 10 μl of each Chain peptide, or gentamicin, tetracycline as reference antibiotics were added in differing concentrations along with 90 μl of bacterial suspension to 96 well polypropylene plates and incubated at 37° C. for 20 to 24 hours. Concentrations of Chain peptides and reference antibiotics ranged from 0.125 to 128 μg/ml and the MICs were recorded as the lowest concentration with no visual growth of bacteria. Similarly, antifungal MICs were tested in Potato dextrose broth.
(§2) Clinical strains of yeasts including Candida albicans, C. glabrata, C. parapsilosis and C. quillermondiae were also tested with the 12 Chain peptides. The minimum inhibitory concentration (MICs) varied between these peptides and are presented in Tables 4a, 4b, 4c and 5a, 5b, 5c. Peptides Chain 105, 201 and 308 are broad spectrum antimicrobials with MICs between 0.5-32 μg/ml against all the bacteria and yeasts tested, except Serratia marcescens and Proteus mirabilis, against which the MICs were between 64-128 μg/ml. Peptide Chain 306 has narrow spectrum activity against E.coli at 1 μg/ml and for the rest of the bacterial strains at >32 μg/ml (FIG. 10).

[2] = system: clinical strains of Enterobacter cloacae; test: MIC, clinical strains of Enterobacter cloacae; type: cell-based; design: unit: μg/ml; conditions: microdilution, Muller Hinton broth-cation adjusted, 0.02% BSA, 0.2% acetic acid
Protocol: as §1, §2

[3] = system: clinical strains of C. parapsilosis; test: MIC, clinical yeast strains, C. parapsilosis; type: cell-based, Candida parapsilosis; design: unit: μg/ml
In short: (§3)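 MH broth; 5.0×10^5 cfu/ml; peptides 0.125–128 μg/ml; 37° C., 20–24 h; visual no-growth endpoint. Fungal MICs in potato dextrose broth.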

[4] = system: clinical strains of Candida albicans; test: MIC, clinical yeast strains, Candida albicans; type: cell-based; design: unit: μg/ml
In short: as §3

[5] = system: clinical strains of Proteus mirabilis; test: MIC, clinical strains of Proteus mirabilis; type: cell-based; design: unit: µg/mL; conditions: microdilution, Muller Hinton broth-cation adjusted, 0.02% BSA, 0.2% acetic acid
Protocol: as §1, §2

[6] = system: clinical strains of Pseudomonas aeruginosa; test: MIC, clinical strains of P. aeruginosa; type: cell-based; design: unit: μg/ml; conditions: microdilution, Muller Hinton broth-cation adjusted, 0.02% BSA, 0.2% acetic acid
Protocol: as §1, §2

[7] = system: clinical strains of C. glabrata; test: MIC, clinical yeast strains, C. glabrata; type: cell-based, Candida glabrata; design: unit: μg/ml
In short: as §3

[8] = system: clinical strains of Streptococcus pneumoniae; test: MIC, clinical strains of Streptococcus pneumoniae; type: cell-based; design: unit: µg/mL; conditions: microdilution, Muller Hinton broth-cation adjusted, 0.02% BSA, 0.2% acetic acid
Protocol: as §1, §2

[9] = system: clinical strains of Staphylococcus aureus; test: MIC, clinical strains of S. aureus; type: cell-based; design: unit: μg/ml; conditions: microdilution, Muller Hinton broth-cation adjusted, 0.02% BSA, 0.2% acetic acid
Protocol: as §1, §2

[10] = system: clinical strains of Klebsiella pneumoniae; test: MIC, clinical strains of K. pneumoniae; type: cell-based; design: unit: μg/ml; conditions: microdilution, Muller Hinton broth-cation adjusted, 0.02% BSA, 0.2% acetic acid
Protocol: as §1, §2

[11] = system: clinical strains of Serratia marcescens; test: MIC, clinical strains of Serratia marcescens; type: cell-based; design: unit: µg/mL; conditions: microdilution, Muller Hinton broth-cation adjusted, 0.02% BSA, 0.2% acetic acid
Protocol: as §1, §2

[12] = system: clinical strains of C. quillermondiae; test: MIC, clinical yeast strains, C. quillermondiae; type: cell-based; conditions: C. quillermondiae clinical yeast strain 1
In short: as §3

SMILES: CC(C)C[C@@H](NC(=O)[C@H](N)CCCNC(=N)N)C(=O)N[C@H](CCCCN)C(=O)N[C@H](Cc1c[nH]c2ccccc12)C(=O)N[C@H](Cc1ccccc1)C(=O)N[C@H](Cc1c[nH]c2ccccc12)C(=O)N[C@H](CC(C)C)C(=O)N[C@H](Cc1ccccc1)C(=O)N[C@H](CCCNC(=N)N)C(=O)N[C@H](CCCCN)C(=O)N[C@H](CCCNC(=N)N)C(=O)O [Chain307D] (H-[dR][dL][dK][dW][dF][dW][dL][dF][dR][dK][dR]-OH)
- Minimum inhibitory concentration ([1]; Escherichia coli clinical strain 1): 4
- Minimum inhibitory concentration ([1]; Escherichia coli clinical strain 2): 4
- Minimum inhibitory concentration ([1]; Escherichia coli clinical strain 3): 4
- Minimum inhibitory concentration ([1]; Escherichia coli clinical strain 4): 2
- Minimum inhibitory concentration ([1]; Escherichia coli clinical strain 5): 4
- Minimum inhibitory concentration ([2]; Enterobacter cloacae clinical strain 1): 4
- Minimum inhibitory concentration ([2]; Enterobacter cloacae clinical strain 2): 8
- Minimum inhibitory concentration ([2]; Enterobacter cloacae clinical strain 3): 4
- Minimum inhibitory concentration ([2]; Enterobacter cloacae clinical strain 4): 4
- Minimum inhibitory concentration ([2]; Enterobacter cloacae clinical strain 5): 4
- Minimum inhibitory concentration ([3]; C. parapsilosis clinical yeast strain 1): 16
- Minimum inhibitory concentration ([3]; C. parapsilosis clinical yeast strain 2): 8
- Minimum inhibitory concentration ([3]; C. parapsilosis clinical yeast strain 3): 8
- Minimum inhibitory concentration ([3]; C. parapsilosis clinical yeast strain 4): 8
- Minimum inhibitory concentration ([4]; Candida albicans clinical yeast strain 1): 16
- Minimum inhibitory concentration ([4]; Candida albicans clinical yeast strain 2): 16
- Minimum inhibitory concentration ([4]; Candida albicans clinical yeast strain 3): 16
- Minimum inhibitory concentration ([4]; Candida albicans clinical yeast strain 4): 16
- Minimum inhibitory concentration ([4]; Candida albicans clinical yeast strain 5): 16
- Minimum inhibitory concentration ([5]; Proteus mirabilis clinical strain 1): >128
- Minimum inhibitory concentration ([5]; Proteus mirabilis clinical strain 2): 128
- Minimum inhibitory concentration ([5]; Proteus mirabilis clinical strain 3): 128
- Minimum inhibitory concentration ([5]; Proteus mirabilis clinical strain 4): >128
- Minimum inhibitory concentration ([5]; Proteus mirabilis clinical strain 5): >128
- Minimum inhibitory concentration ([6]; Pseudomonas aeruginosa clinical strain 1): 16
- Minimum inhibitory concentration ([6]; Pseudomonas aeruginosa clinical strain 2): 16
- Minimum inhibitory concentration ([6]; Pseudomonas aeruginosa clinical strain 3): 16
- Minimum inhibitory concentration ([6]; Pseudomonas aeruginosa clinical strain 4): 8
- Minimum inhibitory concentration ([6]; Pseudomonas aeruginosa clinical strain 5): 8
- Minimum inhibitory concentration ([7]; C. glabrata clinical yeast strain 1): 8
- Minimum inhibitory concentration ([7]; C. glabrata clinical yeast strain 2): 16
- Minimum inhibitory concentration ([7]; C. glabrata clinical yeast strain 3): 8
- Minimum inhibitory concentration ([7]; C. glabrata clinical yeast strain 4): 16
- Minimum inhibitory concentration ([8]; Streptococcus pneumoniae clinical strain 1): 4
- Minimum inhibitory concentration ([8]; Streptococcus pneumoniae clinical strain 2): 4
- Minimum inhibitory concentration ([8]; Streptococcus pneumoniae clinical strain 3): 4
- Minimum inhibitory concentration ([8]; Streptococcus pneumoniae clinical strain 4): 2
- Minimum inhibitory concentration ([8]; Streptococcus pneumoniae clinical strain 5): 2
- Minimum inhibitory concentration ([9]; Staphylococcus aureus clinical strain 1): 2
- Minimum inhibitory concentration ([9]; Staphylococcus aureus clinical strain 2): 2
- Minimum inhibitory concentration ([9]; Staphylococcus aureus clinical strain 3): 2
- Minimum inhibitory concentration ([9]; Staphylococcus aureus clinical strain 4): 2
- Minimum inhibitory concentration ([9]; Staphylococcus aureus clinical strain 5): 2
- Minimum inhibitory concentration ([10]; Klebsiella pneumoniae clinical strain 1): 8
- Minimum inhibitory concentration ([10]; Klebsiella pneumoniae clinical strain 2): 8
- Minimum inhibitory concentration ([10]; Klebsiella pneumoniae clinical strain 3): 16
- Minimum inhibitory concentration ([10]; Klebsiella pneumoniae clinical strain 4): 16
- Minimum inhibitory concentration ([10]; Klebsiella pneumoniae clinical strain 5): 4
- Minimum inhibitory concentration ([11]; Serratia marcescens clinical strain 1): >128
- Minimum inhibitory concentration ([11]; Serratia marcescens clinical strain 2): >128
- Minimum inhibitory concentration ([11]; Serratia marcescens clinical strain 3): 128
- Minimum inhibitory concentration ([11]; Serratia marcescens clinical strain 4): >128
- Minimum inhibitory concentration ([11]; Serratia marcescens clinical strain 5): >128
- Minimum inhibitory concentration [12]: 4
